Reference: patent US11058700B2, “Macrocyclic lactones and uses thereof as modulators of purinergic receptors” (City of Hope, priority 2015, dated 2021)
Where a SMILES comes first, the peptide text is derived from it. The star is where a group is joined. Cbz = O=C(OCc1ccccc1)*; CH2F = FC*

Test system: 4T1.2 cells
Experiment: Cell viability (acid phosphatase assay) of cancer cells treated with Ivermectin
Format: cell-based, mouse
Conditions: cells treated with Ivermectin (32 μM, 4 h in figure legends) in the presence of the agent
Procedure: Cell viability. Cancer cells were plated on 96 well flat-bottom plates and allowed to attach overnight. Cells were then pre-incubated with drugs for 1 h and treated with Ivermectin for 4 h. In the case of 24 h and 48 h incubations the cells, Ivermectin and drugs were plated together. All treatments and controls were done in triplicate wells and results were validated in at least two independent experiments. Following treatment the plates were washed once with PBS and cell viability was measured using the acid phosphatase assay. Briefly, cells were incubated for 1h at 37° C. in 100 μL assay buffer (0.16 M sodium acetate, 0.1% Triton-X-100, supplemented with 4-Nitrophenyl phosphate disodium salt hexahydrate, Sigma Aldrich, at 0.00263 g/ml). Reaction was stopped using 10 μL of 1N sodium hydroxide. Absorption at 405 nm was measured within 10 min using a multi-well plate reader. Mode of cell death and viability of cells in suspension was evaluated using flow cytometry. Briefly, cancer cells were pre-incubated with drugs for 30 min to 1 h, as indicated, treated with Ivermectin for 4 h in 5 ml FACS tubes , washed twice in PBS and stained with PE-conjugated Annexin V and 7AAD (1 μl per 100 μl/200,000 cancer cells) for 15 min.

| Molecule | effect on Ivermectin-induced cell death |
| --- | --- |
| CCCCC1(C2CCCC2)Cc2cc(OCCCC(=O)O)c(Cl)c(Cl)c2C1=O (stereo not shown) [DCPIB] | exacerbates Ivermectin killing |
| c1ccc2c(c1)[I+]c1ccccc1-2 [DPI, Diphenyleneiodonium] | transiently block Ivermectin-induced killing |
| C[C@H]1O[C@@H](O[C@H]2[C@@H](O)C[C@H](O[C@H]3[C@@H](O)C[C@H](O[C@H]4CC[C@@]5(C)[C@H](CC[C@@H]6[C@@H]5C[C@@H](O)[C@]5(C)[C@@H](C7=CC(=O)OC7)CC[C@]65O)C4)O[C@@H]3C)O[C@@H]2C)C[C@H](O)[C@@H]1O [Digoxin] | demonstrated some protection |
| O=C(O)CN(CCN(CC(=O)O)CC(=O)O)CC(=O)O [EDTA] | cell death can be suppressed |
| CN1C(=O)C(Cc2c[nH]c3ccccc23)NC1=S (stereo not shown) [Necrostatin] | demonstrated some protection |
| Nc1ncnc2c1ncn2[C@@H](C=O)O[C@@H](C=O)COP(=O)(O)OP(=O)(O)OP(=O)(O)O [OxATP] | did not observe any protection |
| Cc1nc(N=Nc2ccc(S(=O)(=O)O)cc2S(=O)(=O)O)c(COP(=O)(O)O)c(C=O)c1O [PPADs] | did not observe any protection |
| Nc1c(S(=O)(=O)[O-])cc(Nc2ccc(Cl)cc2)c2c1C(=O)c1ccccc1C2=O.[Na+] [PSB 069] | Ivermectin-induced cytotoxicity was suppressed |
| CCCN(CCC)S(=O)(=O)c1ccc(C(=O)O)cc1 [Probenecid] | enhanced Ivermectin cytotoxicity |
| Cc1ccc(C(=O)Nc2ccc(S(=O)(=O)O)c3cc(S(=O)(=O)O)cc(S(=O)(=O)O)c23)cc1NC(=O)c1cccc(NC(=O)Nc2cccc(C(=O)Nc3cc(C(=O)Nc4ccc(S(=O)(=O)O)c5cc(S(=O)(=O)O)cc(S(=O)(=O)O)c45)ccc3C)c2)c1 [Suramin] | Ivermectin killing was initially enhanced |
| CCO[C@@H]1OC(=O)C[C@@H]1NC(=O)[C@@H]1CCCN1C(=O)[C@@H](NC(=O)c1ccc(N)c(Cl)c1)C(C)(C)C [VX-765] | demonstrated some protection |
| COC(=O)C[C@H](NC(=O)[C@H](C)NC(=O)[C@@H](NC(=O)OCc1ccccc1)C(C)C)C(=O)CF [Z-vad-fmk] (Cbz-Val-Ala-Asp(OMe)-CH2F) | inhibited cell death very effectively |
| Apyrase | Ivermectin killing was initially enhanced |
